SMILES strings stand for the structures. Where “and” joins values, the source holds several entries; their conditions need not be identical. Equal values may be shown once. Marks after values point to notes of the source that are not given here.

For test [1], the system named is human lung adenocarcinoma cell line (SK-LU-1). Nature of the test: Cell viability assay (neutral red), SK-LU-1. Format: cell-based. The following applies: for IC50: Homo sapiens, SK-LU-1, 24 h, neutral red, inactive = viability >50% at >100 µM; for Selectivity Index SK-LU-1: cancer cells over noncancerous Vero cells. Here is the method:
(§1) The human lung adenocarcinoma cell line (SK-LU-1), human colon carcinoma cell line (HCT116), human hepatocellular carcinoma cell line (HepG2) and noncancerous African green monkey kidney epithelial cell line (Vero) were cultured in Dulbecco’s modified Eagle’s medium (DMEM) supplemented with 10% fetal bovine serum, 100 IU/mL penicillin and […] streptomycin. Cells were incubated at 37 °C with 95% air and 5% CO2 until they reached approximately 80% confluence before use.
(§2) Cell viability assay was assessed by neutral red (NR). Briefly, cells at a density of 3 × 10^4 cells/well were seeded in 96-wells plate and incubated for 24 h. […] After incubation time, cells were washed with PBS. NR reagent (50 µg/mL) was added to each well and incubated for another 2 h. After that, cells were washed with PBS and lyzed with 0.33% HCl in isopropanol. Cisplatin was used as a positive control. The absorbance of NR was detected using microplate reader (Tecan, Lyon, France) at 520 nm. The percentage of cell viability was calculated vis-à-vis the untreated cells and cytotoxicity was expressed as the inhibition concentration at 50% (IC50). The final DMSO concentration was not exceed 0.1%v/v to lessen the cytotoxicity (<10%).

Test [2] deals with human hepatocellular carcinoma cell line (HepG2). Nature of the test: Cell viability assay (neutral red), HepG2. Format: cell-based. The following applies: for IC50: Homo sapiens, HepG2, 24 h, neutral red; for Selectivity Index HepG2: cancer cells over noncancerous Vero cells. Here is the method:
as §1
(§3) Cell viability assay was assessed by neutral red (NR). Briefly, cells at a density of 3 × 10^4 cells/well were seeded in 96-wells plate and incubated for 24 h. The sample at concentration, ranging from 10 to 500 µM, were added and incubated for 24 h. After incubation time, cells were washed with PBS. NR reagent (50 µg/mL) was added to each well and incubated for another 2 h. After that, cells were washed with PBS and lyzed with 0.33% HCl in isopropanol. Cisplatin was used as a positive control. The absorbance of NR was detected using microplate reader (Tecan, Lyon, France) at 520 nm. The percentage of cell viability was calculated vis-à-vis the untreated cells and cytotoxicity was expressed as the inhibition concentration at 50% (IC50). The final DMSO concentration was not exceed 0.1%v/v to lessen the cytotoxicity (<10%).

Test [3] is described as follows: DPPH radical scavenging assay. The test is classed as biochemical. The following applies: for DPPH Assay IC50 / IC50: 30 min in the dark, absorbance 517 nm; for DPPH radical scavenging activity classification: classified from IC50 in µg/mL. Here is the method: The 2,2–diphenyl–1–picrylhydrazyl (DPPH) radical scavenging assay was conducted as per the previous method. Briefly, the stock solutions of 10 mM DPPH was prepared in methanol. The DPPH was mixed with samples (100 µL each) at various concentrations (1−500 µM) in 96 wells plate and incubated for 30 min in a dark condition. The absorbance of DPPH radical was measured at 517 nm using a microplate reader (Tecan, Lyon, France). Trolox was used as a positive control. The half maximum inhibitory concentration (IC50 value) was calculated from the plot of percentage of DDPH radical inhibition versus concentration of samples using the following formula: % DPPH radical inhibition = [(Ab − As)/Ab] × 100,(1) where Ab = absorbance of the reagent blank, and As = absorbance of the sample. Each experiment was done in five replications and results are expressed as average values.
A general note: Loss of DPPH colour is used to gauge radical scavenging.

Test [4] deals with human colon carcinoma cell line (HCT116). In words: Cell viability assay (neutral red), HCT116. Format: cell-based. The settings on record: for IC50: Homo sapiens, HCT-116, 24 h, neutral red, inactive = viability >50% at >100 µM; for Selectivity Index HCT116: cancer cells over noncancerous Vero cells. Here is the method:
as §1, §2

Test [5] can be described thus: Ferric reducing antioxidant power (FRAP) assay. Format: biochemical. The following applies: 100 µM compound. Here is the method:
FRAP assay was performed following the pervious study with slight modification. FRAP reagent was prepared by mixing 300 mM acetate buffer (pH 3.6), 20 mM ferric chloride solution and 10 mM TPTZ solution in the ratio of 10:1:1 and incubated at 37 °C for 30 min. Then, 150 µL of FRAP reagent was added with 50 µL of the sample (100 µM of isolated compounds or 100 µg/mL of the CH2Cl2 crude extract) in each well of the 96-wells plate. The absorbance was measured at 595 nm using microplate reader (Tecan, Lyon, France). Trolox was used as a positive control. The FRAP value was calculated from the linear equation between the absorbance and ferrous sulfate standard curves (y = 0.0548x + 0.0213, R^2 = 0.9989) and expressed as µM of ferrous sulfate equivalents.

The test system of the next test is HepG2 cells. Nature of the test: Mode of cell death by Annexin V-FITC/PI staining, flow cytometry. Format: cell-based, human. The text has this:
In this study, double staining of cells by Annexin V-FITC/propidium iodide (PI) was used to differentiate apoptosis from necrosis. The stages of apoptosis can be distinguished from necrotic cell death by flow cytometry using Annexin V-FITC/PI double staining of HepG2 cells. During the early stages of apoptosis, the phosphatidylserine comprising the cell membrane will externalize to be exposed to the surface of apoptotic cells and bind with Annexin V-FITC, showing a cell dot plot in Quadrant 4. The cell dot plot is positively stained with Annexin V-FITC but negatively stained with PI (+/−). When cells are damaged or undergo a late state of apoptosis, cells will lose their membrane integrity, including nuclear membrane integrity, so that PI can pass through the nuclear membrane, showing a cell dot plot in Quadrant 2. […] During cell undergo necrotic cell death, cells are stained and appear in Quadrant 1 (−/+). Normal cells are not stained and appear in Quadrant 3 (−/−). The total apoptotic cell death percentage was counted from the percentage of cells undergoing an early state and late state of apoptosis gathering from Quadrants 4 and 2, while the necrotic cell death percentage was counted from Quadrant 1, as shown in Figure 2.
The Annexin V-FITC and PI apoptosis assay kit (BioLegend, San Diego, CA, USA) was used to determine mode of cell death as per previous report. The HepG2 cells (8 × 10^5 cell/mL) were seeded in a 24-well plate and incubated for 24 h. The compounds at a concentration of 1 x IC50 and 2 x IC50 were added and incubated for 12 and 24 h. After that, cells were washed with PBS and cold BioLegend’s cell staining buffer followed by staining with Annexin V-FITC and PI and cell were incubated in the dark for 15 min. The cells were analyzed by flow cytometry (BD FACSCanto II, BD Biosciences, San Jose, CA, USA) and the percentage of cells in different populations were calculated with FACSDiva software.
Background: Flow cytometry measures light scatter and fluorescence of single cells or particles in a stream.

The subject of test [6] is noncancerous African green monkey kidney epithelial cell line (Vero). In words: Cell viability assay (neutral red), Vero. The test is classed as cell-based. More on the design: key to IC50 Vero: inactive: Inactive means cell viability percentage was >50% at the maximum concentration used (>100 µM for the compound or >100 µg/mL for the extract). The following applies: 24 h, inactive = viability >50% at >100 µM. Here is the method:
as §1, §3

`C=CC(C)(C)c1cc2c(O)c3c(c(C(C)(C)C=C)c2oc1=O)OC(C)(C)C=C3` [Clausarin (2), clausarin]: in test [1], the IC50 was 6.9 ± 1.6 µM and the “Selectivity Index SK-LU-1” value is “(11.3)”. In test [2], the IC50 was found to be 17.6 ± 2.1 µM and the “Selectivity Index HepG2” value is on record as “(4.4)”. Moreover, in test [3], the “DPPH Assay IC50” value is listed as 2.3 ± 0.3^a µg/mL, half-maximal inhibition (IC50) was put at 6 ± 0.8 µM and the “DPPH radical scavenging activity classification” value is listed as “high radical scavenger”. For the same compound, in test [4], the IC50 came out at 44.9 ± 1.4 µM and the “Selectivity Index HCT116” value is recorded as “(1.7)”. Besides, the “FRAP Value” in test [5] is listed as 45.2 ± 1.0^b µM FeSO4 Equivalents. Besides, the “FRAP Value” in test [5] (listed as clausarin) is 45.2 ± 1.0 µM FeSO4 Equivalents and 45.2 µM FeSO4 Equivalents. Moreover, in the test on HepG2 cells (HepG2, 1 × IC50, 12 h), the “apoptotic cell death percentage (total, Quadrants 4 and 2)” value came out at 44.0 ± 1.2%; the “necrotic cell death percentage (Q1, Annexin V-FITC/PI −/+)” value (from here on “necrotic cell death percentage”) stood at 6.8 ± 1.4%. Moreover, in the test with HepG2 cells (HepG2, 2 × IC50, 12 h), the “necrotic cell death percentage” value worked out at 27.4 ± 3.8%. The compound also registered an IC50 in test [6] (Chlorocebus sabaeus, Vero) of 78.2 ± 3 µM.
As for `COc1c2c(cc3oc(=O)ccc13)OC(C)(C)C=C2` [Xanthoxyletin (4), xanthoxyletin], the IC50 in test [1] amounted to 94.4 ± 2.2 µM; in test [2], 78.2 ± 2.2 µM; in test [3] it was 247 ± 3 µM; in test [4], 79.8 ± 2.8 µM. Also, the “Selectivity Index SK-LU-1” value in test [1] is “(1.1)”. Further, the “Selectivity Index HepG2” value in test [2] is reported as “(1.3)”. Moreover, the “DPPH Assay IC50” value in test [3] was 63.8 ± 0.8^d µg/mL. The “DPPH radical scavenging activity classification” value in test [3] is reported as “low radical scavenger”. Also, the “Selectivity Index HCT116” value in test [4] was “(1.3)”. Besides, the “FRAP Value” is 5.2 ± 0.3^f µM FeSO4 Equivalents in test [5] and 5.2 µM FeSO4 Equivalents in test [5] (listed as xanthoxyletin). The “necrotic cell death percentage” value is given as 2.5 ± 0.7% in the test on HepG2 cells (HepG2, 1 × IC50, 12 h); 1.6 ± 0.9% in the test on HepG2 cells (HepG2, 1 × IC50, 24 h); 2.9 ± 1.2% in the test with HepG2 cells (HepG2, 2 × IC50, 12 h); 2.7 ± 1.1% in the test on HepG2 cells (HepG2, 2 × IC50, 24 h). The “apoptotic cell death percentage (total, Quadrants 4 and 2)” value in the test on HepG2 cells (HepG2, 1 × IC50, 24 h) is given as 49.7 ± 1.1%; in the test on HepG2 cells (HepG2, 2 × IC50, 12 h) it was 49.6 ± 1.2%; in the test with HepG2 cells (HepG2, 2 × IC50, 24 h) it was 64.2 ± 3.2%. Moreover, the “IC50 Vero” value in test [6] was “inactive^cB”.

In general, IC50 refers to the point on the concentration scale where inhibition reaches its midpoint.

Values taken from article PMC6767265, “Cytotoxicity and Apoptosis Induction of Coumarins and Carbazole Alkaloids from Clausena Harmandiana” (Molecules, 2019).
